Laboratory results from US9487557B2, “Peptides for management of lactation” (MILEUTIS LTD., priority 2012, dated 2016).
Square brackets hold non-standard residues; d marks the D form. Ends that are not written are not given here. pS = N[C@@H](COP(=O)(O)O)C(=O)O

Key:
Assay type in all cases: in vivo
[1] = test system: mammary gland of lactating dairy cows; assay: Field study of involution induction: change in lactose content of milk samples after a single intramammary infusion at dry-off; details: difference in lactose concentration vs Day 0, single intramammary infusion, peptides 4 mg in 10 ml, casein hydrolyzate 20 ml
Experimental: (§1) A filed study was performed to assess the potential of a single intramammary dose of the synthetic peptides of the invention administered at dry (i.e. at the day in which milking is ceased), to induce rapid involution.
(§2) Total of 107 dairy cows were enrolled to the study, of which 45 received treatment and 62 served as a control. All cows were dairy cows at their first or further lactation that stand the inclusion/exclusion criteria. The study was a controlled blinded case-control study.
(§3) Case subjects received one dose by intramammary infusion of a particular peptide. Controls were lactating cows that received the following products by intramammary administration:
(§4) Five groups of 9 cows (total of 36 udder quarters per group) were scheduled as case groups. Each group was treated with one out of the five (5) phosphopeptides described in Example 1 hereinabove (P241210-01-01; 03; 05; 07 and 09). The peptides were administered once via intramammary infusion of 10 ml containing 4 mg peptide.
(§5) Set one: Five groups of 9 cows (total of 36 udder quarters per group) were scheduled as a first control set. Each group was treated with one out of the five (5) dephosphorylated peptides described in Example 1 hereinabove (P241210-01-02; 04; 06; 08 and 10). The peptides were administered once via intramammary infusion of 10 ml containing 4 mg peptide.
(§6) (i) Eleven cows (total of 44 udder quarters) treated with casein hydrolyzate (20 ml) administered once via intramammary infusion of 20 ml (around 1.8 mg/ml casein phosphopeptide (CPP), total=36 mg CPP for 20 ml)
(§7) All treatments (peptides, casein hydrolyzate and saline) were administered at the time point scheduled for cessation of milking (dry off). The day of administration was set as Day 0.
(§8) Sets of aseptic milk samples were collected in two separate vials once a day in the milking facility after the morning milking, on Day 0 and in post-treatment days 1, 2 and 3. The sampling time points were set to up to three days after treatment administration to ensure sufficient milk secretion for the measurements of all involution parameters. The volume of the samples was between 30 to 50 ml. The pH of the milk sample was measured in situ using a Cyberscan pH11 meter (Eutech Instruments, Singapore). The apparatus was calibrated each day by immersing the receptor in standard buffers of pH 7.0 and pH 4.01. Measurements were taken twice for each sample obtained from a mammary gland, with an interval of 30 seconds between measurements. pH measurement was repeated on-site by using the same sample vial. Before double-pH measurement, the milk sample vials were gently shaken three (3) times. After the pH measurement, the milk samples vials were kept in cool storage with a preservative product (Broad Spectrum Microtabs II—Bronopol and Metamycin—D&F Control System Inc., Two Technology Way, Norwood Mass. 02062 USA).
Lactose values in the milk samples were determined at the Central Laboratory of Milk Quality, Caesaria Industrial Park, Israel, according to ISO 2266211DF 198:2007.
Data from six quarters were excluded from the analysis of lactose changes. Data from one of those quarters were omitted due to a missing initial value. For the other five quarters, lactose concentrations taken during the three follow-up days could not be analyzed due to a rapid mammary involution process, resulting in non-sufficient milk sample for lactose analysis.
(§9) Endpoint Measures: pH, lactose and somatic cell counts (SCC) values from milk secretions at day 0 and during three (3) days post-treatment were taken. Results are described as the difference between the measures at each of the 3 days post treatment and the measured level at Day 0.
One of the most significant outcomes of involution in terms of milk composition is a reduction in lactose content. Thus, lactose concentration was also measured in the milk samples taken before and after peptide or CNH administration as described for the pH measurements hereinabove. […]

[2] = test system: mammary gland of lactating dairy cows; assay: Field study of involution induction: change of pH in milk samples after a single intramammary infusion at dry-off; details: difference in pH vs Day 0, single intramammary infusion, peptides 4 mg in 10 ml, casein hydrolyzate 20 ml
Experimental: as §1, §2, §3, §4, §5, §6, §7, §8, §9
Table 2 below summarizes the effect of the peptides examined and of casein hydrolyzate (CNH) on the pH of milk samples taken 1, 2 and 3 days after the one-dose treatment with each peptide or CNH. The results are presented as the difference in pH value between each of the days post treatment and Day 0 (before treatment).

[3] = test system: mammary gland of lactating dairy cows; assay: Field study of involution induction: change in somatic cell counts in milk samples after a single intramammary infusion at dry-off; details: change vs Day 0, calculated from log transformation of raw data, single intramammary infusion, peptides 4 mg in 10 ml, casein hydrolyzate 20 ml
Experimental: as §1, §2, §3, §4, §5, §6, §7, §8
Somatic cell count was also determined in milk samples by Fossomatic 360 (Foss Electric, Hillerod, Denmark), and based on guidelines from the USA National Mastitis Council. Laboratory Handbook on Bovine Mastitis. 1999. Ed. National Mastitis Council, Verona, Wis. 53593 USA.
as §9
Additional parameter that may be used to establish the progression of the involution process is the presence of somatic cells within the milk. The increase in cell count within the milk is the result of high degree of apoptotic epithelial cell death associated with involution. […] The results presented in the table were calculated from log transformation of the raw data that were highly variable.

With “Lys-Ser(P)-Ser(P)-Ser(P)-Glu-Glu-NH2 (K[pS][pS][pS]EE-NH2; N-terminus assumed; SMILES NCCCC[C@H](N)C(=O)N[C@@H](COP(=O)(O)O)C(=O)N[C@@H](COP(=O)(O)O)C(=O)N[C@@H](COP(=O)(O)O)C(=O)N[C@@H](CCC(=O)O)C(=O)N[C@@H](CCC(=O)O)C(N)=O) [E(p), casein-derived peptide, positive control]” the “Changes in Lactose content in milk samples, Day 1, Mean” value ([1]; Day 1 post treatment) was −0.354, the “Changes in Lactose content in milk samples, Day 2, Mean” value ([1]; Day 2 post treatment) was −1.530 and the “Changes in Lactose content in milk samples, Day 3, Mean” value ([1]; Day 3 post treatment) was −2.042. For the same substance, the “Changes of pH in milk samples, Day 1, Mean” value ([2]; Day 1 post treatment) was 0.045, the “Changes of pH in milk samples, Day 2, Mean” value ([2]; Day 2 post treatment) was 0.061 and the “Changes of pH in milk samples, Day 3, Mean” value ([2]; Day 3 post treatment) was 0.128. For the same substance, the “Changes in Somatic Cell Counts in milk samples, Day 1, Mean” value ([3]; Day 1 post treatment) was 0.060, the “Changes in Somatic Cell Counts in milk samples, Day 2, Mean” value ([3]; Day 2 post treatment) was 1.175 and the “Changes in Somatic Cell Counts in milk samples, Day 3, Mean” value ([3]; Day 3 post treatment) was 1.847.
